≈ marks a conversion by molar mass, not a printed value. Like-named read-outs stand apart in the source and are kept apart here.
Tests used:
S. aureus smith = assay: In vitro antibacterial MIC; assay type: cell-based; settings: Staphylococcus aureus, pH 7
Description: (§1) The minimum inhibitory concentration (MIC) was determined by a two-fold serial tube dilution method using nutrient agar (pH7, Difco containing 10^5 cfu/ml).

X. maltophilia GN12873 = assay: In vitro antibacterial MIC; assay type: cell-based; settings: Stenotrophomonas maltophilia, pH 7, nutrient agar pH7, 32° C., 18 hours
Description: as §1

P. vulgaris IPM-13 = assay: In vitro antibacterial MIC; assay type: cell-based; settings: Proteus vulgaris
Description: as §1

M. morganii I510 = assay: In vitro antibacterial MIC; assay type: cell-based; settings: Morganella morganii, pH 7
Description: as §1

S. epidermidis 11-1230 = assay: In vitro antibacterial MIC; assay type: cell-based
Description: as §1

P. aeruginosa IPM-9 = assay: In vitro antibacterial MIC; assay type: cell-based; settings: Pseudomonas aeruginosa
Description: as §1

S. marcescens IPM-16 = assay: In vitro antibacterial MIC; assay type: cell-based; settings: Serratia marcescens, IPM16, 18 h, pH 7
Description: as §1

M. luteus PCI 1001 = assay: In vitro antibacterial MIC; assay type: cell-based; settings: Micrococcus luteus, PCI1001, pH 7, nutrient agar pH7, 32° C., 18 hours
Description: as §1

P. aeruginosa A9843A = assay: In vitro antibacterial MIC; assay type: cell-based; settings: Pseudomonas aeruginosa, 18 h, pH 7
Description: as §1

E. faecalis A9808 = assay: In vitro antibacterial MIC; assay type: cell-based; settings: Enterococcus faecalis, pH 7
Description: as §1

E. faecium A24817 = assay: In vitro antibacterial MIC; assay type: cell-based; settings: Enterococcus faecium, pH 7, nutrient agar pH7, 32° C., 18 hours
Description: as §1

P. cepecia A21213 = assay: In vitro antibacterial MIC; assay type: cell-based; settings: 18 h, pH 7
Description: as §1

P. mirabilis IFO 3849 = assay: In vitro antibacterial MIC; assay type: cell-based; settings: Proteus mirabilis
Description: as §1

S. aureus A15036 (MRSA) = assay: In vitro antibacterial MIC; assay type: cell-based; settings: Staphylococcus aureus, 18 h, pH 7
Description: as §1

P. aeruginosa A20599 = assay: In vitro antibacterial MIC; assay type: cell-based; settings: Pseudomonas aeruginosa, pH 7
Description: as §1

E. coli 255 = assay: In vitro antibacterial MIC; assay type: cell-based; settings: pH 7
Description: as §1

S. aureus IPM-24 (MRSA) = assay: In vitro antibacterial MIC; assay type: cell-based; settings: Staphylococcus aureus, 18 h, pH 7
Description: as §1

P. aeruginosa IPM-8 = assay: In vitro antibacterial MIC; assay type: cell-based; settings: Pseudomonas aeruginosa
Description: as §1

P. cepecia No. 651 = assay: In vitro antibacterial MIC; assay type: cell-based; settings: 18 h, pH 7
Description: as §1

K. pneumoniae PCI 602 = assay: In vitro antibacterial MIC; assay type: cell-based; settings: Klebsiella pneumoniae
Description: as §1

S. marcescens IPM-15 = assay: In vitro antibacterial MIC; assay type: cell-based; settings: Serratia marcescens
Description: as §1

P. aeruginosa KKA19 = assay: In vitro antibacterial MIC; assay type: cell-based; settings: Pseudomonas aeruginosa, pH 7, nutrient agar pH7, 32° C., 18 hours
Description: as §1

E. cloacae IPM-12 = assay: In vitro antibacterial MIC; assay type: cell-based; settings: Enterobacter cloacae
Description: as §1

E. coli Juhl A15119 = assay: In vitro antibacterial MIC; assay type: cell-based; settings: Escherichia coli
Description: as §1

X. maltophilia No. 661 = assay: In vitro antibacterial MIC; assay type: cell-based; settings: Stenotrophomonas maltophilia, pH 7, nutrient agar pH7, 32° C., 18 hours
Description: as §1

P. rettgeri IPM-14 = assay: In vitro antibacterial MIC; assay type: cell-based; settings: Providencia rettgeri
Description: as §1

gram-positive organisms = assay: In vitro antibacterial activity, gram-positive organisms as a group; assay type: cell-based
Description: as §1

gram-negative organisms = assay: In vitro antibacterial activity, gram-negative organisms as a group; assay type: cell-based; settings: 18 h, read-out: MIC (range)
Description: as §1

[1] = test system: Cryptococcus neoformans D49; assay: In vitro antifungal MIC; assay type: cell-based
Description: (§2) The antifungal MICs of dynemicin C and its triacetate were determined by an agar dilution method on yeast morphology agar adjusted to pH7.0 with 1/15M phosphate buffer. A 5 μl aliquot of fungal suspension containing 10^6 cells/ml was inoculated onto the surface of the antibiotic-containing agar plates with a multiinoculator.

[2] = test system: Candida albicans ATCC 38247; assay: In vitro antifungal MIC; assay type: cell-based
Description: as §2

C. neoformans IAM4514 = assay: In vitro antifungal MIC; assay type: cell-based, Cryptococcus neoformans; settings: C. neoformans IAM4514; in words
Description: as §2

[3] = test system: HCT-116 (human colon carcinoma) cells; assay: In vitro cytotoxicity; assay type: cell-based; settings: 72 hours, 37° C., neutral red, 540 nm
Description: (§3) Dynemicin C and its triacetate derivative were tested for in vitro cytotoxicity against murine and human tumor cell lines. Dynemicin A and its triacetate derivative were used as reference compounds. B16-F10 (murine melanoma) cells were grown to the logarithmic phase in enriched Eagle minimum essential medium (MEM) supplemented with fetal calf serum (FCS, 10%) and kanamycin (60 mcg/ml) and HCT-116 (human colon carcinoma) cells in Maccoy's 5A medium supplemented with FCS (10%), penicillin (100 μ/ml) and streptomycin (100 mcg/ml), and were harvested and inoculated into wells of the 96- or 24-well tissue culture plate with test materials at concentrations of 1.5×10^4, 1.3×10^4, 1.3×10^4, 2.5×10^4 and 3.0×10^4 cells/ml., respectively. They were incubated at 37° C. in a humidified atmosphere of 5% CO2 and 95% air for 72 hours. The cytotoxic activities were determined colorimetrically at 540 nm after staining viable cells with 0.006% neutral red solution.

[4] = test system: B16-F10 (murine melanoma) cells; assay: In vitro cytotoxicity; assay type: cell-based; settings: Mus musculus, 72 hours, 37° C., neutral red, 540 nm
Description: as §3

Solubility = assay type: physicochemical; settings: solvent not stated

NCC[C@H](O)C(=O)N[C@@H]1C[C@H](N)[C@@H](O[C@H]2O[C@H](CN)[C@@H](O)[C@H](O)[C@H]2O)[C@H](O)[C@H]1O[C@H]1O[C@H](CO)[C@@H](O)[C@H](N)[C@H]1O [Amikacin, reference compound]
MIC (S. aureus smith; S. aureus smith, two-fold serial dilution, nutrient agar pH7, 32° C., 18 hours, read-out: MIC): 1.6 µg/mL (≈ 2.73 µM)
MIC (X. maltophilia GN12873): > 100 µg/mL
MIC (P. vulgaris IPM-13; IPM13, pH 7, P. vulgaris IPM-13, nutrient agar pH7, 32° C., 18 hours, read-out: MIC): 6.3 µg/mL (≈ 10.8 µM)
MIC (M. morganii I510; M. morganii I510, nutrient agar pH7, 32° C., 18 hours, read-out: MIC): 25 µg/mL (≈ 42.7 µM)
MIC (S. epidermidis 11-1230; Staphylococcus epidermidis, 111230, pH 7, S. epidermidis 11-1230, nutrient agar pH7, 32° C., 18 hours, read-out: MIC): 25 µg/mL (≈ 42.7 µM)
MIC (P. aeruginosa IPM-9; IPM9, pH 7, P. aeruginosa IPM-9, nutrient agar pH7, 32° C., 18 hours, read-out: MIC): 1.6 µg/mL (≈ 2.73 µM)
MIC (S. marcescens IPM-16): 100 µg/mL (≈ 171 µM)
MIC (M. luteus PCI 1001): 3.1 µg/mL (≈ 5.29 µM)
MIC (P. aeruginosa A9843A): 3.1 µg/mL (≈ 5.29 µM)
MIC (E. faecalis A9808; E. faecalis A9808, nutrient agar pH7, 32° C., 18 hours, read-out: MIC): 50 µg/mL (≈ 85.4 µM)
MIC (E. faecium A24817): 100 µg/mL (≈ 171 µM)
MIC (P. cepecia A21213): > 100 µg/mL
MIC (P. mirabilis IFO 3849; IFO3849, pH 7, P. mirabilis IFO 3849, nutrient agar pH7, 32° C., 18 hours, read-out: MIC): 25 µg/mL (≈ 42.7 µM)
MIC (S. aureus A15036 (MRSA)): 3.1 µg/mL (≈ 5.29 µM)
MIC (P. aeruginosa A20599; P. aeruginosa A20599, nutrient agar pH7, 32° C., 18 hours, read-out: MIC): 1.6 µg/mL (≈ 2.73 µM)
MIC (E. coli 255; Escherichia coli, E. coli 255, nutrient agar pH7, 32° C., 18 hours, read-out: MIC): 6.3 µg/mL (≈ 10.8 µM)
MIC (S. aureus IPM-24 (MRSA)): 100 µg/mL (≈ 171 µM)
MIC (P. aeruginosa IPM-8; IPM8, pH 7, P. aeruginosa IPM-8, nutrient agar pH7, 32° C., 18 hours, read-out: MIC): 6.3 µg/mL (≈ 10.8 µM)
MIC (P. cepecia No. 651): > 100 µg/mL
MIC (K. pneumoniae PCI 602; PCI602, pH 7, K. pneumoniae PCI 602, nutrient agar pH7, 32° C., 18 hours, read-out: MIC): 1.6 µg/mL (≈ 2.73 µM)
MIC (S. marcescens IPM-15; IPM15, pH 7, S. marcescens IPM-15, nutrient agar pH7, 32° C., 18 hours, read-out: MIC): 12.5 µg/mL (≈ 21.3 µM)
MIC (P. aeruginosa KKA19): 3.1 µg/mL (≈ 5.29 µM)
MIC (E. cloacae IPM-12; IPM12, pH 7, E. cloacae IPM-12, nutrient agar pH7, 32° C., 18 hours, read-out: MIC): 25 µg/mL (≈ 42.7 µM)
MIC (E. coli Juhl A15119; JUHLA15119, pH 7, E. coli Juhl A15119, nutrient agar pH7, 32° C., 18 hours, read-out: MIC): 12.5 µg/mL (≈ 21.3 µM)
MIC (X. maltophilia No. 661): > 100 µg/mL
MIC (P. rettgeri IPM-14; IPM14, pH 7, P. rettgeri IPM-14, nutrient agar pH7, 32° C., 18 hours, read-out: MIC): 12.5 µg/mL (≈ 21.3 µM)

COC1=C(C=O)C(C)C23OC24c2cc(OC(C)=O)c5c(c2NC3C#CC=CC#CC14)C(=O)c1c(OC(C)=O)ccc(OC(C)=O)c1C5=O (stereo not shown) [Dynemicin C triacetate]
activity against gram-positive organisms compared with amikacin (gram-positive organisms; comparison in words): much better activities against these organisms than amikacin
activity against gram-positive organisms (gram-positive organisms; in words): strong activity
MIC (gram-negative organisms): 0.05 to 0.8 µg/mL
activity (compared with amphotericin B and ketoconazole) ([1]; Cryptococcus neoformans D49, in words): inactive
MIC ([1]; Cryptococcus neoformans, D49, 40 h, pH 7): > 100 µg/mL
activity compared with ketoconazole ([2]; Candida albicans ATCC 38247, amphotericin resistant, in words): stronger than that of ketoconazole
MIC ([2]; Candida albicans, ATCC38247, 40 h, pH 7): 0.4 µg/mL
MIC (S. aureus smith; 18 h): 0.0008 µg/mL
MIC (X. maltophilia GN12873): 0.8 µg/mL
MIC (P. vulgaris IPM-13; IPM13, 18 h, pH 7): 0.1 µg/mL
MIC (M. morganii I510; I510, 18 h): 0.05 µg/mL
MIC (S. epidermidis 11-1230; Staphylococcus epidermidis, 111230, 18 h, pH 7): 0.0008 µg/mL
MIC (P. aeruginosa IPM-9; IPM9, 18 h, pH 7): 6.3 µg/mL
MIC (S. marcescens IPM-16): 0.4 µg/mL
MIC (M. luteus PCI 1001): 0.0031 µg/mL
MIC (P. aeruginosa A9843A): 0.2 µg/mL
MIC (E. faecalis A9808; A9808, 18 h): 0.0063 µg/mL
MIC (E. faecium A24817): 0.0063 µg/mL
MIC (P. cepecia A21213): 0.2 µg/mL
MIC (P. mirabilis IFO 3849; IFO3849, 18 h, pH 7): 0.2 µg/mL
MIC (S. aureus A15036 (MRSA)): 0.0004 µg/mL
MIC (P. aeruginosa A20599; A20599, 18 h): 0.4 µg/mL
MIC (E. coli 255; Escherichia coli, 255, 18 h): 0.4 µg/mL
MIC (S. aureus IPM-24 (MRSA)): 0.0004 µg/mL
MIC (P. aeruginosa IPM-8; IPM8, 18 h, pH 7): 0.4 µg/mL
MIC (P. cepecia No. 651): 0.2 µg/mL
MIC (K. pneumoniae PCI 602; PCI602, 18 h, pH 7): 0.2 µg/mL
MIC (S. marcescens IPM-15; IPM15, 18 h, pH 7): 0.8 µg/mL
MIC (P. aeruginosa KKA19): 0.4 µg/mL
MIC (E. cloacae IPM-12; IPM12, 18 h, pH 7): 0.8 µg/mL
MIC (E. coli Juhl A15119; JUHLA15119, 18 h, pH 7): 0.4 µg/mL
MIC (X. maltophilia No. 661): 0.2 µg/mL
MIC (P. rettgeri IPM-14; IPM14, 18 h, pH 7): 0.1 µg/mL
activity (compared with amphotericin B and ketoconazole) (C. neoformans IAM4514): inactive
IC50 [3]: 0.0028 µg/mL
IC50 [4]: 0.00074 µg/mL
solubility relative to dynemicin C (Solubility): increased solubility relative to dynemicin C

COC1=C(C(=O)O)C(C)C23OC24c2cc(OC(C)=O)c5c(c2NC3C#CC=CC#CC14)C(=O)c1c(OC(C)=O)ccc(OC(C)=O)c1C5=O (stereo not shown) [Dynemicin A acetate, reference compound]
IC50 [4]: 0.0007 µg/mL
